Measured values taken from US20260174786A1, “A NITROGEN-CONTAINING SPIROCYCLIC COMPOUND, PHARMACEUTICAL COMPOSITION AND USE THEREOF” (Prime Gene Therapeutics Co., Ltd., priority 2022, published 2026).

Experiments:
[1] = Pharmacokinetic experiments in male SD rats; type: in vivo, rat
Experimental: Male SD rats were grouped in groups of 3 rats each and orally administered with the compound of Example (10 mg/kg) and intravenously injected with the compound of Example (2 mg/kg). Animals were fasted overnight before the experiment, from 10 hours before administration to 4 hours after administration. Blood samples were collected at 0.25, 0.5, 1, 2, 4, 8, and 24 hours after administration in the oral group, and at 0.083, 0.25, 0.5, 1, 2, 4, 8, and 24 hours after injection in the intravenous group. After anesthesia with isoflurane using a small animal anesthesia machine, 0.3 mL of whole blood was collected through the retinal venous plexus, and placed in a heparin anticoagulant tube. The sample was centrifuged at 4° C. and 4000 rpm for 5 minutes, and the plasma was transferred to the centrifuge tube and stored at −80° C. until analysis. The plasma samples were extracted using protein precipitation method, and the extract was analyzed by LC-MS/MS.

[2] = Liver microsome metabolism stability test (human); type: in vitro ADME; settings: human liver microsomes, 1 μM compound
Experimental: (§1) Two separate experiments were conducted. a) NADPH: 10 μL of 20 mg/mL liver microsomes and 40 μL of 10 mM NADPH were added to a culture medium. The final concentrations of microsomes and NADPH were 0.5 mg/mL and 1 mM, respectively. b) NADPH free: 10 μL of 20 mg/mL liver microsomes and 40 μL of ultrapure H2O were added to a culture medium. The final concentration of microsomes was 0.5 mg/mL.
(§2) At the beginning of the reaction, 4 μL of 100 μM test compound solution or a control compound solution with a final concentration of 1 μM were added, and proceed at 37° C.
(§3) 50 μL aliquots were taken from the reaction solution at 0, 7, 15, 30, and 60 minutes. The reaction was stopped by adding 4 volumes of cold acetonitrile and IS (100 nM alprazolam, 200 nM labetalol, 200 nM caffeine, and 2 μM ketoprofen). The samples were centrifuged at 3220 grams for 40 minutes. 100 μL supernatant divided equally was mixed with 100 μL of ultrapure H2O, and use for LC-MS/MS analysis.

[3] = Liver microsome metabolism stability test (rat); type: in vitro ADME; settings: rat liver microsomes, 1 μM compound
Experimental: as §1, §2, §3

[4] = male, SD, rat, plasma, intravenous, 2 mg/kg
[5] = male, SD, rat, plasma, po, gavage, 10 mg/kg

Compound: O=C(c1ccc(F)cn1)N1CCC2(CC(O)c3cc(-c4ccccc4C4CC4)ccc32)C1 (centres unmarked) [Example 15, (5-(2-cyclopropylphenyl)-3-hydroxy-2,3-dihydrospiro[indene-1,3′-pyrrolidine]-1′-yl)(5-fluoropyridin-2-yl) ketone]
- F ([1]; gavage, 10 mg/kg): 80.6%
- AUC(0-inf) [1, 4]: 10500 ng·h/mL
- C0 [1, 4]: 4060 ng/mL
- clearance [1, 4]: 3.3 mL/min/kg
- half-life [1, 4]: 1.63 h
- Vd ([1]; male, SD, rat, plasma, intravenous, 2 mg/kg, read-out: Vss): 0.41 L/kg
- AUC(0-inf) [1, 5]: 42200 ng·h/mL
- Cmax [1, 5]: 8050 ng/mL
- Tmax [1, 5]: 1.33 h
- half-life [1, 5]: 1.88 h
- in vitro Clint [2]: 70.41 microliters/minute/milligrams
- half-life at 1 μM ([2]; read-out: in vitro T1/2): 0.328 h
- in vitro Clint [3]: 53.68 microliters/minute/milligrams
- half-life at 1 μM ([3]; read-out: in vitro T1/2): 0.43 h
